Where two headings read alike, the source gives them in different places.
Key:
[1] = system: OVCAR3; test: MTT cytotoxicity assay, OVCAR3
[2] = system: HS578T; test: MTT cytotoxicity assay, HS578T
[3] = in vivo; conditions: female, CD1, mouse, ip
Experimental: Pilot safety studies were performed in CD1 mice (n=3/dose group of healthy female mice aged 6-8 weeks) with increasing single doses delivered i.p. and the NOAEL (no-observed-adverse-effect level) was selected for further animal studies. […] Bortezomib was dissolved in a minimal amount of DMSO and further diluted with saline before injection in a dose finding study. […] To measure on-target inhibition of proteasome activity in mice, a leg muscle of CD-1 mice was transduced with the 4UbFL reporter construct. […] Briefly, mouse leg muscle was electroporated with 4UbFL plasmid and basal bioluminescence was measured after 24 hr using IVIS200 imager after injecting luciferin substrate. Mice were randomized (n=5/group) and treated with compounds in PEG400: Cremophor: Tween40 combination or vehicle alone as shown in Table 5 with one dose delivered by intraperitoneal injection. The mice were again imaged at 4 h, 24 h, 48 h post treatment.

[4] = system: A2780; test: MTT cytotoxicity assay, A2780
[5] = system: HCT116 ARID1A^-/-; test: MTT cytotoxicity assay, HCT116 ARID1A knockout; format: cell-based, human; conditions: for IC50: Homo sapiens, read-out: IC50 HCT116 ARID1A^-/-
Text: Loss of ARID1A function is a common driver of ovarian and some other cancer types, and it confers vulnerability to inhibition of GSH (36).

[6] = system: ROS; test: ROS by Amplex Red, ES2 cells; format: cell-based, human; conditions: ES2, 12 hr; listed in order of potency
Experimental: FIG. 16C illustrates ES2 cells treated for 12 hr with compounds (or as a positive control, H2O2) at the indicated doses, and then reactive oxygen species (i.e. ROS) levels measured by adding Amplex Red and HRP.
Amplex Red Assay to measure ROS: Amplex Red reagent (#A12222, Thermo Scientific) combined with horseradish peroxidase (HRP) was used to detect H2O2. Briefly cells were treated in 96 well plates with corresponding compounds at indicated times. Next 50 μM Amplex® Red reagent plus 1 U/mL HRP in 50 mM sodium phosphate buffer, pH 7.4, were added to cells and incubated for 30 minutes at room temperature. Fluorescence was measured with a fluorescence-based microplate reader using excitation at 530±12.5 nm and detection at 580±25 nm. Background fluorescence of 969 units for Amplex® Red reagent, determined for a no-H2O2 control reaction, was subtracted from each value. H2O2 treatment (1 h) was used as positive control.

[7] = system: PEA1; test: cells; conditions: read-out: cytotoxicity IC50 PEA1
Experimental: (§1) Cell lines and cytotoxicity assays: All cell lines were obtained from the American Type Culture Collection (ATCC) and cultured in the specified medium supplemented with 10% fetal bovine serum, 100 IU/mL penicillin, and 100 μg/mL streptomycin at 37° C. in a humidified 5% CO2/95% air incubator. […] To assess drug cytotoxicity, cells were seeded at 2,500 cells/well (10,000 cells/well for MM lines) in 100 μL medium in 96-well plate and after 24 treated with compounds for 72 h, incubated according to the manufacturer's protocol with the Thiazolyl Blue Tetrazolium Bromide (Sigma, M2128) and A570 measured using a Benchmark Plus microplate spectrophotometer (BIO-RAD). IC50 data was analyzed by Graphpad Prism software. In the chirality studies the cells were treated with compounds for 48 h, and the cells were incubated and measured via the preceeding protocols.

[8] = system: BR5-Luc; test: MTT cytotoxicity assay, BR5-Luc; conditions: read-out: cytotoxicity IC50 BR5-Luc, Tables 3A/4B/4C, BRCA2 − VE
[9] = system: ID8-vegf; test: MTT cytotoxicity assay, ID8-vegf; conditions: read-out: cytotoxicity IC50 ID8-vegf, Tables 3A/4B/4C
[10] = system: DLD1; test: MTT cytotoxicity assay, DLD1; conditions: Homo sapiens, DLD-1, read-out: cytotoxicity IC50 DLD1
Experimental: as §1

[11] = system: PEO14; test: cells; conditions: read-out: cytotoxicity IC50 PEO14
Experimental: as §1

[12] = system: PC3; test: MTT cytotoxicity assay, PC3; conditions: Homo sapiens
[13] = system: CaSki; test: MTT cytotoxicity assay, CaSki
[14] = system: TOV21G; test: MTT cytotoxicity assay, TOV21G
[15] = system: ANBL6; test: MTT cytotoxicity assay, ANBL6; format: cell-based; conditions: Homo sapiens, read-out: IC50 ANBL6
Experimental: (§2) The cytotoxic efficacy of selected compounds was assessed against multiple myeloma (MM) cell lines, as this is a validated clinical target for the licensed proteasome inhibitors.
(§3) Cell lines and cytotoxicity assays: All cell lines were obtained from the American Type Culture Collection (ATCC) and cultured in the specified medium supplemented with 10% fetal bovine serum, 100 IU/mL penicillin, and 100 μg/mL streptomycin at 37° C. in a humidified 5% CO2/95% air incubator. […] To assess drug cytotoxicity, cells were seeded at 2,500 cells/well (10,000 cells/well for MM lines) in 100 μL medium in 96-well plate and after 24 treated with compounds for 72 h, incubated according to the manufacturer's protocol with the Thiazolyl Blue Tetrazolium Bromide (Sigma, M2128) and A570 measured using a Benchmark Plus microplate spectrophotometer (BIO-RAD). IC50 data was analyzed by Graphpad Prism software.

[16] = system: ME180; test: MTT cytotoxicity assay, ME180; format: cell-based; conditions: Homo sapiens, read-out: IC50 ME180
Experimental: as §3

[17] = system: ES2; test: MTT cytotoxicity assay, ES2
[18] = system: DLD-BRCA2-Ve; test: MTT cytotoxicity assay, DLD-BRCA2-Ve; conditions: read-out: cytotoxicity IC50 DLD-BRCA2-Ve
Experimental: as §1

[19] = system: RPMI8226; test: MTT cytotoxicity assay, RPMI8226; format: cell-based; conditions: Homo sapiens, read-out: IC50 RPMI8226
Experimental: as §2, §3

[20] = system: HCC1806; test: MTT cytotoxicity assay, HCC1806; format: cell-based; conditions: Homo sapiens, read-out: IC50 HCC1806
Experimental: as §3

[21] = system: SUM1315; test: cells; conditions: read-out: cytotoxicity IC50 SUM1315
Experimental: as §1

[22] = system: SKOV3-TR; test: MTT cytotoxicity assay, SKOV3-TR
[23] = system: ANBL6-V10R; test: MTT cytotoxicity assay, ANBL6-V10R; format: cell-based; conditions: read-out: IC50 ANBL6-V10R
Experimental: as §2, §3

[24] = system: RPMI8226-V10R; test: MTT cytotoxicity assay, RPMI8226-V10R; format: cell-based; conditions: read-out: IC50 RPMI8226-V10R
Experimental: as §2, §3

[25] = system: HCC1395; test: MTT cytotoxicity assay, HCC1395; conditions: Homo sapiens, HCC1395, read-out: cytotoxicity IC50 HCC1395
[26] = system: MDA-MB-468; test: cells; conditions: Homo sapiens, MDA-MB-468, read-out: cytotoxicity IC50 MDA-MB-468
Experimental: as §1

[27] = read-out: cytotoxicity IC50 OVCAR3, Tables 3A/4B/4C, MTT assay
[28] = read-out: cytotoxicity IC50 HS578T, Tables 3A/4B/4C, MTT assay
[29] = read-out: cytotoxicity IC50 A2780, Tables 3A/4B/4C, MTT assay
[30] = HCT-116, Table 3, MTT, 48 hr, Colon
[31] = read-out: cytotoxicity IC50 CasKi, Tables 3A/4B/4C, MTT assay
[32] = read-out: cytotoxicity IC50 SKOV3-TR, Tables 3A/4B/4C, MTT assay
[33] = PC-3, read-out: cytotoxicity IC50 PC3
[34] = read-out: cytotoxicity IC50 TOV21G, Tables 3A/4B/4C, MTT assay
[35] = read-out: cytotoxicity IC50 ES2, Tables 3A/4B/4C, MTT assay
[36] = read-out: IC50 TOV21G, Table 3, MTT, 48 hr, Ovarian
[37] = Table 3, MTT, 48 hr, Multiple Myeloma, bortezomib resistant

CC(C)C[C@H](NC(=O)[C@H](Cc1ccccc1)NC(=O)c1cnccn1)B(O)O [Bortezomib, bortezomib, reference compound]
IC50 [1, 27]: 30 nM | IC50 [2, 28]: 13 nM | NOAEL [3]: 0.75 mg/kg | IC50 [4, 29]: 3 nM | IC50 [5, 30]: 2.8 nM | level of ROS (Amplex Red) [6]: raised the level of ROS in a dose-dependent manner | IC50 [7]: 30 nM | IC50 [8]: 4.1 nM | IC50 [9]: 1.5 nM | IC50 [10]: 4.8 nM | IC50 [11]: 30 nM

O=C(CCl)N[C@@H](Cc1ccccc1)C(=O)N1C/C(=C\c2ccc([N+](=O)[O-])cc2)C(=O)/C(=C/c2ccc([N+](=O)[O-])cc2)C1 [RA375]
IC50 ([1]; read-out: IC50 OVCAR3): 17 nM | IC50 ([12]; PC-3, 48 h, read-out: IC50 PC3): 27 nM | IC50 ([13]; read-out: IC50 CaSki): 43 nM | IC50 [13, 31]: 3 nM | fold less sensitive: parental HCT116 vs isogenic ARID1A knockout [5]: 4 fold | IC50 ([5]; HCT-116, 48 h): 20 nM | IC50 ([14]; read-out: IC50 TOV21G): 6 nM | IC50 ([15]; ANBL-6, 48 h): 12 nM | IC50 ([16]; ME-180, 48 h): 20 nM | IC50 ([17]; read-out: IC50 ES2): 19 nM | IC50 [18]: 18 nM | IC50 ([19]; RPMI-8226, 48 h): 9 nM | IC50 ([20]; HCC1806, 48 h): 17 nM | IC50 [21]: 19 nM | IC50 [22, 32]: 22 nM | IC50 ([23]; 48 h): 16 nM | IC50 [10]: 24 nM | IC50 ([24]; 48 h): 6 nM

CC1/C(=C\c2ccc([N+](=O)[O-])cc2)C(=O)/C(=C/c2ccc([N+](=O)[O-])cc2)CN1C(=O)[C@H](Cc1ccccc1)NC(=O)CCl (stereo partly shown) [RA414]
IC50 [1, 27]: < 20 nM | IC50 [2, 28]: 1.5 nM | NOAEL [3]: 3 mg/kg | IC50 [12, 33]: 12 nM | IC50 [4, 29]: 3.5 nM | IC50 [25]: < 15 nM | IC50 [14, 34]: 1.1 nM | level of ROS (Amplex Red) [6]: raised the level of ROS in a dose-dependent manner | IC50 [17, 35]: 7.5 nM | IC50 [18]: < 40 nM | IC50 [7]: 30 nM | IC50 [21]: 20 nM | IC50 [22, 32]: < 20 nM | IC50 [9]: < 40 nM | IC50 [10]: < 40 nM | IC50 [11]: 30 nM | IC50 [26]: < 20 nM

C[C@H]1/C(=C\c2ccc([N+](=O)[O-])cc2)C(=O)/C(=C/c2ccc([N+](=O)[O-])cc2)CN1C(=O)[C@@H](N)Cc1ccccc1
NOAEL [3]: 30 mg/kg | IC50 [13, 31]: 27 nM | IC50 [25]: 75 nM | IC50 [14, 34]: 3.6 nM | level of ROS (Amplex Red) [6]: raised the level of ROS in a dose-dependent manner | IC50 [17, 35]: 40 nM | IC50 [18]: 55 nM | IC50 [7]: 70 nM | IC50 [8]: 5.7 nM | IC50 [21]: 258 nM | IC50 [22, 32]: 60 nM | IC50 [10]: 164 nM | IC50 [11]: 92 nM | IC50 [26]: 75 nM

N[C@@H](Cc1ccccc1)C(=O)N1C/C(=C\c2ccc(Cl)c(Cl)c2)C(=O)/C(=C/c2ccc(Cl)c(Cl)c2)C1 [RA190, reference compound]
IC50 [1, 27]: 120 nM | IC50 [2, 28]: 78 nM | IC50 [12, 33]: 162 nM | IC50 [13, 31]: 324 nM | IC50 [4, 29]: 139 nM | IC50 [25]: 0.35 nM | IC50 [5, 30]: 164 nM | IC50 [14, 36]: 83 nM | IC50 [14, 34]: 148 nM | IC50 ([15]; ANBL-6, Table 3, MTT, 48 hr, Multiple Myeloma): 67 nM | IC50 ([16]; ME-180, Table 3, MTT, 48 hr, Cervical (HPV +ve)): 183 nM | IC50 [17, 35]: 115 nM | IC50 [7]: 386 nM | IC50 ([19]; RPMI-8226, Table 3, MTT, 48 hr, Multiple Myeloma): 45 nM | IC50 [8]: 38 nM | IC50 ([20]; HCC1806, Table 3, MTT, 48 hr, Triple Negative Breast): 52 nM | IC50 [21]: 1370 nM | IC50 [22, 32]: 109 nM | IC50 [23, 37]: 55 nM | IC50 [9]: 211 nM | IC50 [11]: 375 nM | IC50 [24, 37]: 47 nM | IC50 [26]: 300 nM

N[C@@H](Cc1ccccc1)C(=O)N1C/C(=C\c2ccc([N+](=O)[O-])cc2)C(=O)/C(=C/c2ccc([N+](=O)[O-])cc2)C1 [RA183, reference compound]
IC50 ([1]; read-out: IC50 OVCAR3, Table 3, MTT, 48 hr, Ovarian): 78 nM | IC50 [1, 27]: 78 nM | IC50 ([2]; read-out: IC50 HS578T, Table 3, MTT, 48 hr, Triple Negative Breast): 89 nM | IC50 [2, 28]: 89 nM | IC50 ([12]; PC-3, 48 h, read-out: IC50 PC3): 133 nM | IC50 [12, 33]: 133 nM | IC50 ([13]; read-out: IC50 CaSki, Table 3, MTT, 48 hr, Cervical (HPV +ve)): 312 nM | IC50 [13, 31]: 312 nM | IC50 ([4]; read-out: IC50 A2780, Table 3, MTT, 48 hr, Ovarian): 161 nM | IC50 [4, 29]: 161 nM | IC50 ([5]; HCT-116, 48 h): 155 nM | IC50 [14, 36]: 44 nM | IC50 [14, 34]: 53 nM | IC50 ([15]; ANBL-6, 48 h): 58 nM | IC50 ([16]; ME-180, 48 h): 293 nM | level of ROS (Amplex Red) [6]: raised the level of ROS in a dose-dependent manner | IC50 ([17]; read-out: IC50 ES2, Table 3, MTT, 48 hr, Ovarian): 75 nM | IC50 [17, 35]: 75 nM | IC50 ([19]; RPMI-8226, 48 h): 88 nM | IC50 ([20]; HCC1806, 48 h): 44 nM | IC50 ([22]; read-out: IC50 SKOV3-TR, Table 3, MTT, 48 hr, Ovarian, paclitaxel resistant): 77 nM | IC50 [22, 32]: 77 nM | IC50 ([23]; 48 h): 103 nM | IC50 [9]: 198 nM | IC50 ([24]; 48 h): 139 nM | IC50 [26]: 250 nM
